# Test results from patent publication US10882860B2, “Treatment of osteoarthritis” (Samumed, LLC, priority 2015, dated 2021).
# Marks after values point to notes of the source that are not given here.
# How the values were obtained:
# [1] = test system: moderate-to-severe symptomatic knee OA subjects; assay: Phase 1 clinical study: safety and adverse events; assay type: in vivo, human; conditions: for AE(s) Reported - All / AE(s) Reported - Target knee, Arthralgia / AE(s) Reported - Target knee, Injection site bruising / AE(s) Reported - Target knee, Injection site pain / AE(s) Reported - Target knee, Joint injury / AE(s) Reported - Target knee, Joint stiffiiess / AE(s) Reported - Target knee, Joint swelling / AE(s) Reported - Target knee, Meniscus injury / DLT(s) Reported / SAE(s) Reported: single IA injection
# Description: A Phase 1 study was conducted to evaluate the safety and tolerability of the compound of Formula (I) (Form 1) administered by intra-articular injection into a target knee joint of moderate-to-severe symptomatic OA subjects.
# (§1) The study was a first-in-human, multicenter, 24-week, placebo-controlled, single-dose, dose-escalation safety study of a Wnt pathway inhibitor in subjects suffering from moderate to severe symptomatic knee OA. The sample size was 20 subjects (randomized 4:1, 16 active: 4 placebo) per dosing cohort. Inclusion criteria included: Age, 50-75 years; Western Ontario and McMaster Universities Arthritis Index (WOMAC) Total score, 36-72 (out of 96); Kellgren-Lawrence grade, 2 or 3; and a willingness to omit pain medication for 24 hours prior to pain assessments. Exclusion criteria included: BMI>40; and treatment with IA steroids within 2 months or HA derivatives within 6 months prior to injection. A full list of the inclusion and exclusion criteria for this study can be found on clinicaltrials.gov (NCT02095548).
# (§2) The dosing sequence included suspension compositions of either 0.03 mg, 0.07 mg, or 0.23 mg of the compound of Formula (I) (Form 1) per 2 mL injection in a vehicle containing 0.5% carboxymethylcellulose sodium and 0.05% polysorbate 80 in pH 7.4 phosphate buffered saline. The placebo contained only the diluent of 0.5% carboxymethylcellulose sodium and 0.05% polysorbate 80 in pH 7.4 phosphate buffered saline. The subjects were given a single, intra-articular injection in the target knee on Treatment Day 1 and participated in a follow-up period of 24 weeks.
# (§3) Safety, pharmacokinetics (PK), biomarker, and efficacy data were collected at baseline and during the 24-week follow-up period. Safety data included adverse events (AEs), concomitant medications, clinical laboratory sampling, medical history, vital signs, ECGs, hip bone density (DXA) analysis, qCT of the target knee, and evaluation of bone edema via MM. For PK data, samples were collected 0, 4, and 24 hours post dose, and at Weeks 4 and 12. Biomarker data included data for procollagen type 1 N-propeptide (P1NP), beta C-terminal telopeptide of type 1 collagen (βCTX), and cartilage oligomeric matrix protein (COMP). Efficacy data included measurements of WOMAC Total score, WOMAC Function and Pain subscores, pain VAS, Physician Global Assessment of Disease Activity, MM, and radiographs. Efficacy assessments were used to determine the percentage of OMERACT-OARSI “strict” responders. Exploratory analyses of efficacy outcomes were conducted using a baseline-adjusted repeated measures analysis of covariance (ANCOVA) in the Intention-to-Treat (ITT) population. The sponsor was unblinded after Week 12 for each cohort; site investigators remained blinded. All AEs reported in this study were […]. Investigator opinion regarding whether AEs were related to the compound of Formula (I) was also collected for informational purposes.
# [2] = test system: Wnt genes TCF7, c-Myc, Axin-2, Ascl 2, and SP5; assay: In vitro Wnt pathway inhibition, qRT-PCR in human MSCs; assay type: cell-based; conditions: 30 nM; 48 hours; fold change vs DMSO; FIG. 15
# Description: Human mesenchymal stem cells (MSCs) were plated in 6-well plates in chondrogenic induction medium (Lonza; DMEM, dexamethasone, ascorbate, insulin-transferrin-selenium [ITS supplement], gentamycin-amphotericin [GA-1000], sodium pyruvate, proline and L-glutamine) and treated with the compound of Formula (I) (30 nM) in DMSO or TGF-β3 (20 μg/mL) as a positive control. Cells were incubated at 37° C., 5% CO2 for 48 hours. Cells were pelleted and washed, and total RNA was isolated and purified using RNeasy Plus Mini Kit (Qiagen). cDNA was synthesized from 1 μg of total RNA using QuantiTect Reverse Transcription kit (Qiagen). qRT-PCR was performed with QuantiTect SYBR Green PCR Kit (Qiagen) and gene-specific primers, using CFX384 thermal cycler (Biorad). Transcripts were quantitated by comparative Ct method and normalized to endogenous controls, β-actin and GAPDH. Fold changes were normalized to DMSO treated cells.
# [3] = test system: moderate-to-severe symptomatic knee OA subjects; assay: Phase 1 clinical study: biomarkers (COMP, βCTX, P1NP); assay type: in vivo, human
# Source text: as §1, §2, §3
# [4] = test system: chondrogenic and osteogenic gene expression in human MSCs; assay: Chondrogenic and osteogenic gene expression, qRT-PCR in human MSCs; assay type: cell-based; conditions: 10 nM and 30 nM, 21 days
# Description: Human MSCs were plated in 10 cm dishes in chondrogenic induction medium (Lonza; DMEM, dexamethasone, ascorbate, insulin-transferrin-selenium [ITS supplement], gentamycin-amphotericin [GA-1000], sodium pyruvate, proline and L-glutamine) and treated with the compound of Formula (I) in DMSO (10 nM and 30 nM) or TGF-β3 (20 μg/mL) as a positive control. Cells were incubated at 37° C., 5% CO2 for 21 days, with media changes every 5 days. Cells were pelleted and washed, and total RNA was isolated and purified using RNeasy Plus Mini Kit (Qiagen). cDNA was synthesized from 1 μg of total RNA using QuantiTect Reverse Transcription kit (Qiagen). qRT-PCR was performed with QuantiTect SYBR Green PCR Kit (Qiagen) and gene-specific primers, using CFX384 thermal cycler (Biorad). Transcripts were quantitated by comparative Ct method and normalized to endogenous controls, β-actin and GAPDH. Fold changes were normalized to DMSO treated cells.
smiles,measurement,setting,value
CC(C)CC(=O)Nc1cncc(-c2ccc3[nH]nc(-c4nc5c(-c6cccc(F)c6)cncc5[nH]4)c3c2)c1 [compound of Formula (I)],Subjects Who Reported AE(s) [N(%)],[1]; 0.03 mg cohort,9 (53%) N(%)
same,Subjects Who Reported No AE(s) [N(%)],[1]; 0.03 mg cohort,8 (47%) N(%)
same,AE(s) Reported - All,[1]; 0.03 mg cohort,15
same,"AE(s) Reported - Target knee, Arthralgia",[1]; 0.03 mg cohort,1
same,"AE(s) Reported - Target knee, Injection site bruising",[1]; 0.03 mg cohort,0
same,"AE(s) Reported - Target knee, Injection site pain",[1]; 0.03 mg cohort,0
same,"AE(s) Reported - Target knee, Joint injury",[1]; 0.03 mg cohort,1
same,"AE(s) Reported - Target knee, Joint stiffiiess",[1]; 0.03 mg cohort,0
same,"AE(s) Reported - Target knee, Joint swelling",[1]; 0.03 mg cohort,0
same,"AE(s) Reported - Target knee, Meniscus injury",[1]; 0.03 mg cohort,0
same,DLT(s) Reported,[1]; 0.03 mg cohort,0
same,SAE(s) Reported,[1]; 0.03 mg cohort,0
same,Subjects Who Reported AE(s) [N(%)],[1]; 0.07 mg cohort,6 (37%) N(%)
same,Subjects Who Reported No AE(s) [N(%)],[1]; 0.07 mg cohort,10 (63%) N(%)
same,AE(s) Reported - All,[1]; 0.07 mg cohort,11
same,"AE(s) Reported - Target knee, Arthralgia",[1]; 0.07 mg cohort,1
same,"AE(s) Reported - Target knee, Injection site bruising",[1]; 0.07 mg cohort,0
same,"AE(s) Reported - Target knee, Injection site pain",[1]; 0.07 mg cohort,2
same,"AE(s) Reported - Target knee, Joint injury",[1]; 0.07 mg cohort,0
same,"AE(s) Reported - Target knee, Joint stiffiiess",[1]; 0.07 mg cohort,0
same,"AE(s) Reported - Target knee, Joint swelling",[1]; 0.07 mg cohort,1
same,"AE(s) Reported - Target knee, Meniscus injury",[1]; 0.07 mg cohort,0
same,DLT(s) Reported,"[1]; 0.07 mg cohort, increased target knee pain and paroxysmal tachycardia",2*
same,SAE(s) Reported,"[1]; 0.07 mg cohort, paroxysmal tachycardia",1*
same,Subjects Who Reported AE(s) [N(%)],[1]; 0.23 mg cohort,7 (44%) N(%)
same,Subjects Who Reported No AE(s) [N(%)],[1]; 0.23 mg cohort,9 (56%) N(%)
same,AE(s) Reported - All,[1]; 0.23 mg cohort,25
same,"AE(s) Reported - Target knee, Arthralgia",[1]; 0.23 mg cohort,1
same,"AE(s) Reported - Target knee, Injection site bruising",[1]; 0.23 mg cohort,1
same,"AE(s) Reported - Target knee, Injection site pain",[1]; 0.23 mg cohort,1
same,"AE(s) Reported - Target knee, Joint injury",[1]; 0.23 mg cohort,0
same,"AE(s) Reported - Target knee, Joint stiffiiess",[1]; 0.23 mg cohort,1
same,"AE(s) Reported - Target knee, Joint swelling",[1]; 0.23 mg cohort,1
same,"AE(s) Reported - Target knee, Meniscus injury",[1]; 0.23 mg cohort,1
same,DLT(s) Reported,[1]; 0.23 mg cohort,0
same,SAE(s) Reported,[1]; 0.23 mg cohort,0
same,AEs considered related to study medication by the reporting investigator,[1]; 16 of 77 AEs,22%
same,exposed subjects who reported no AEs,[1]; 27 of 49 exposed subjects,55%
same,overall safety and tolerability,"[1]; single IA injection of suspension formulated from Form 1, interim data","safe, well-tolerated"
same,"expression of Wnt genes TCF7, c-Myc, Axin-2, Ascl 2, and SP5",[2],downregulation
same,change in COMP,[3]; 0.03 mg cohort,no significant changes
same,reduction in cartilage oligomeric matrix protein (COMP),"[3]; 0.07 mg cohort, Week 12, P=0.001",130 ng/mL
same,change in COMP,[3]; 0.23 mg cohort,no significant changes
same,change in βCTX or P1NP,[3]; any treatment group,no significant changes
same,chondrogenic gene expression,[4]; FIG. 18A,upregulated
same,osteogenic gene expression,[4]; FIG. 18B,downregulated
